Article PMC10035947, “Development of novel anilinoquinazoline-based carboxylic acids as non-classical carbonic anhydrase IX and XII inhibitors” (Journal of Enzyme Inhibition and Medicinal Chemistry, 2023)
Where two headings read alike, the source gives them in different places.

Legend:
[1] = biological target: T1, hCA II (Homo sapiens, UniProt P00918); test: stopped flow CO2 hydrase assay; assay type: biochemical; conditions: mean from 3 assays
T1 construct: made in house
Protocol: (§1) Carbonic anhydrase inhibition assay
The carbonic anhydrase catalyzed CO2 hydration actions for the quinazoline-based carboxylic acid derivatives (6a-c, 7a-c and 8a-c) were assayed utilizing an instrument of Applied Photophysics stopped-flow, as described previously. The enzymes are recombinant proteins prepared in our lab. Phenol red (at a concentration of 0.2 mM) has been used as indicator, working at the absorbance maximum of 557 nm, with 20 mM Hepes (pH 7.5) as buffer, and 20 mM Na2SO4 (for maintaining constant the ionic strength), following the initial rates of the CA- […]
(§2) 1.7 to 17 mM for the determination of the kinetic parameters and inhibition constants. For each inhibitor at least six traces of the initial 5-10% of the reaction have been used for determining the initial velocity. The uncatalyzed rates were determined in the same manner and subtracted from the total observed rates. Stock solutions of inhibitor (0.1 mM) were prepared in distilled-deionized water and dilutions up to 0.01 nM were done thereafter with the assay buffer. Inhibitor and enzyme solutions were preincubated together for 15 min at room temperature prior to assay, in order to allow for the formation of the E-I complex. The inhibition constants were obtained by non-linear least-squares methods using PRISM 3 and the Cheng-Prusoff equation, and represent the mean from at least three different determinations.

[2] = biological target: T2, hCA I (Homo sapiens, UniProt P00915); test: stopped flow CO2 hydrase assay; assay type: biochemical; conditions: mean from 3 assays
T2 construct: made in house
Protocol: as §1
(§3) The carbonic anhydrase catalyzed CO2 hydration actions for the quinazoline-based […]
(§4) Photophysics stopped-flow, as described previously. The enzymes are recombinant proteins prepared in our lab. Phenol red (at a concentration of 0.2 mM) has been used as indicator, working at the absorbance maximum of 557 nm, with 20 mM Hepes (pH 7.5) as buffer, and 20 mM Na2SO4 (for maintaining constant the ionic strength), following the initial rates of the CA- […]
(§5) 1.7 to 17 mM for the determination of the kinetic parameters and inhibition constants. For each […]
as §2, with “initial” for “1.7 to 17 mM for the determination of the kinetic parameters and inhibition constants. For each inhibitor at least six traces of the initial 5-10% of the reaction have been used for determining the initial”

[3] = biological target: T3, hCA IX (Homo sapiens, UniProt Q16790); test: stopped flow CO2 hydrase assay; assay type: biochemical; conditions: for Selectivity ratio II/IX: KI hCA II / KI hCA IX; for Ki: mean from 3 assays
T3 construct: made in house
Protocol: as §1, §3, §4, §5
as §2, with “initial” for “1.7 to 17 mM for the determination of the kinetic parameters and inhibition constants. For each inhibitor at least six traces of the initial 5-10% of the reaction have been used for determining the initial”

[4] = biological target: T4, hCA XII (Homo sapiens, UniProt O43570); test: stopped flow CO2 hydrase assay; assay type: biochemical; conditions: for Selectivity ratio I/XII: KI hCA I / KI hCA XII; for Selectivity ratio II/XII: KI hCA II / KI hCA XII; for Ki: mean from 3 assays
T4 construct: made in house
Protocol: as §1, §3, §4, §5
as §2, with “initial” for “1.7 to 17 mM for the determination of the kinetic parameters and inhibition constants. For each inhibitor at least six traces of the initial 5-10% of the reaction have been used for determining the initial”

[5] = biological target: T3, hCA IX; conditions: cited from earlier work
[6] = biological target: T4, hCA XII; conditions: cited from earlier work

T2 sequence (P00915 whole entry): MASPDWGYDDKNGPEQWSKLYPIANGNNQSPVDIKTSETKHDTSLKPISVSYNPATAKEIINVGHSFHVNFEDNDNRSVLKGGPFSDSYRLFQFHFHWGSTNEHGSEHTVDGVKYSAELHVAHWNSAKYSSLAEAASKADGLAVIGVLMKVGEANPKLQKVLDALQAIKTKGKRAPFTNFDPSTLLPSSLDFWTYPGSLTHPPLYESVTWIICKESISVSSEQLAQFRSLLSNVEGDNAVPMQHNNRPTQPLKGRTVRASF
T4 sequence (O43570 25-354): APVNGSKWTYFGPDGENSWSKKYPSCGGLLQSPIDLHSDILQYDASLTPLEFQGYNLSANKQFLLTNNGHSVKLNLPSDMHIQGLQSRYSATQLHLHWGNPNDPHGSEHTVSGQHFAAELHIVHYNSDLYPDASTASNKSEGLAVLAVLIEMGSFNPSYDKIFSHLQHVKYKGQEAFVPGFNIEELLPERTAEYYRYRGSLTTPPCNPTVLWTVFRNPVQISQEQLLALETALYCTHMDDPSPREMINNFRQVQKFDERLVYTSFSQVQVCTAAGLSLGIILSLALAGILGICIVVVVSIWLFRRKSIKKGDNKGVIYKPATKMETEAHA

SMILES	Ki [1]	melting point	Ki [2]	Selectivity ratio I/IX ([3]; KI hCA I / KI hCA IX)	Selectivity ratio II/IX [3]	Ki [3]	Selectivity ratio I/XII [4]	Selectivity ratio II/XII [4]	Ki [4]	Ki [5]	Ki [6]
COc1ccc(-c2nc(Nc3ccc(C(=O)O)cc3)c3ccccc3n2)cc1 [8c, 4-((2–(4-Methoxyphenyl)quinazolin-4-yl)amino)benzoic acid]	4.6 µM	> 300 °C	66.3 µM	14.7	1.02	4.5 µM	265.2	18.40	0.25 µM		
Cc1cccc(-c2nc(Nc3cccc(C(=O)O)c3)c3ccccc3n2)c1 [7a, 3-((2-(m-Tolyl)quinazolin-4-yl)amino)benzoic acid]	26 µM		> 100 µM		0.89	29.3 µM	20.8	5.42	4.8 µM		
COc1ccc(-c2nc(Nc3cccc(C(=O)O)c3)c3ccccc3n2)cc1 [7c, 3-((2–(4-Methoxyphenyl)quinazolin-4-yl)amino)benzoic acid]	85.8 µM	244 to 246 °C	> 100 µM		2.72	31.6 µM		178.75	0.48 µM		
O=C(O)c1ccc(N/C=C/C(=O)c2ccc(F)cc2)cc1 [III]										0.92 µM	1.1 µM
Cc1c(NC(=O)Nc2cccc(C(=O)O)c2)oc2ccccc12 [I]										0.79 µM	2.3 µM
